What was measured:
Androgen receptor [1] = target: T1, Androgen receptor (Homo sapiens, UniProt P10275)
T1 sequence (P10275 whole entry): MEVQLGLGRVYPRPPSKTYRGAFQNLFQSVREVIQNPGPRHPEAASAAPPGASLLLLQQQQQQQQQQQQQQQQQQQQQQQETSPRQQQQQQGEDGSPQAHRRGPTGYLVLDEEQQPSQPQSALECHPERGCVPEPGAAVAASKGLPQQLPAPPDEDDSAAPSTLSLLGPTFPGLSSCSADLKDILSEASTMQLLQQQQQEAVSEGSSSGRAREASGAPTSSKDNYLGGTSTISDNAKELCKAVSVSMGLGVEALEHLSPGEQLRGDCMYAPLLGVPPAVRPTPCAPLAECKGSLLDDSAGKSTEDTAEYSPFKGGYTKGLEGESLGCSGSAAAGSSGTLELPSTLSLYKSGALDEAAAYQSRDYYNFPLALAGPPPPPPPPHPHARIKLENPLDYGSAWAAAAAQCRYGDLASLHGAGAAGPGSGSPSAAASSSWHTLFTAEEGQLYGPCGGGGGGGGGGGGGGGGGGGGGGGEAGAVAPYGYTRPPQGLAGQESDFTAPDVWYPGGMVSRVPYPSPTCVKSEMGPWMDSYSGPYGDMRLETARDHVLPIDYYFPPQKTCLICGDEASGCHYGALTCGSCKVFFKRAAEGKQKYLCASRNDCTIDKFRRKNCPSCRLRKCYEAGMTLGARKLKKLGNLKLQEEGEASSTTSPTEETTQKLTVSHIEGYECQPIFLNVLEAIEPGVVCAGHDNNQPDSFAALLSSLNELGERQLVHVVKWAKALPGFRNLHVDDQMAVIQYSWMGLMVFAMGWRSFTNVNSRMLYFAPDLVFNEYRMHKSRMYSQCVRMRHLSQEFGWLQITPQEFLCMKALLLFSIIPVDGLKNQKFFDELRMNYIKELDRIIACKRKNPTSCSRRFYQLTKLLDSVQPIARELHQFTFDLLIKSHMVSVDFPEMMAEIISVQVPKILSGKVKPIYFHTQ
Description: Antagonistic activity (IC50) against human androgen receptor (hAR) in co-transfected CV-1 cell

Androgen receptor [2] = target: T1, Androgen receptor; settings: cv-1
Description: Agonistic activity against human androgen receptor (hAR) in co-transfected CV-1 cell

Androgen receptor [3] = target: T1, Androgen receptor; test: Binding affinity against hAR androgen receptor expressed in COS cells; format: cell-based

| SMILES | IC50 (Androgen receptor [1]) [nM] | EC50 (Androgen receptor [2]) | Ki (Androgen receptor [3]) [nM] |
| --- | --- | --- | --- |
| CN1c2cc3c(cc2[C@H]2CCCC(C)(C)[C@H]21)c(C(F)(F)F)cc(=O)n3C | 27 | Not Active | 59 |
| Cn1c(=O)cc(C(F)(F)F)c2cc3c(cc21)NCC3 | 56 | Not Active | 61 |
| CC1(C)CCC[C@@H]2c3cc4c(C(F)(F)F)cc(O)nc4cc3N[C@@H]21 | 26 | Not Active | 79 |
